Results from US20220177484A1, “MACROCYCLES WITH ANTIOXIDANT AND NEUROPROTECTIVE ACTIVITIES” (INSTITUTO BIOMAR, S.A, priority 2019, published 2022).

What was measured:
Type in all cases: cell-based
[1] = tested on: cortical primary neurons (from C57BL6/J mice); assay: Caspase-3 activity (neuronal apoptosis) after excitotoxic NMDA stimulus; settings: 100 μM NMDA 10 min, then 24 h with compound 0.1, 1, 5 μM (FIG. 6)
Method: (§1) For NMDA receptors activation, neurons at 8 days in vitro were incubated with 100 μM NMDA for 10 minutes. Neurons were then washed and further incubated for 24 hours in culture medium with DMSO only (DMSO empty bar), DMSO and NMDA (DMSO filled bar) and with increasing quantities of GKK1032C, GKK1032, Pyrrocidine B, CL0661, CL0665, CL0667 and CL0670. Concentrations of 0.1 μM, 1 μM, 5 μM. *: pvalue <0.05 vs. DMSO+NMDA (student's test).
(§2) Experiments were performed in […] cortical primary neurons, obtained as was previously described (Herrero-Mendez A. et al., Nat. Cell. Biol. 11:747-752, 2009). After 7 or 8 days in B27-MAO culture, neurons (from C57BL6/J mice) were incubated in the presence of N-methyl-D-aspartate (NMDA, a H2O2 production promoter; 100 μM) for 10 minutes, followed by a PBS washing step and submitted to a 24-hour B27 incubation step in the absence (DMSO) or presence of increasing amounts of GKK1032C, GKK1032, Pyrrocidine B, Pyrrocidine A, CL0661, CL0665, CL0667 and CL0670 (0.1 μM, 1 μM and 5 μM). B27-MAO stands for Neurobasal medium, supplemented with B27 supplement in the absence of antioxidants (minus antioxidants, MAO).
Neuronal apoptosis was determined by measuring caspase-3 activity (Veas-Perez de Tudela et al. Sci Rep 5:18180; doi:10.1038/srep18180 (2015).
(§3) The data are presented as the mean values±standard deviation of the mean from n=3.

[2] = tested on: cortical primary neurons (from C57BL6/J mice); assay: H2O2 production in neurons after excitotoxic NMDA stimulus (Amplex Red); settings: 100 μM NMDA 10 min, then compound 0.1, 1, 5 μM (FIG. 5)
Method: as §1, with “4” for “24”, “Pyrrocidine A, Pyrrocidine” for “Pyrrocidine”, “CL0661,” for “CL0661, CL0665,”, “p-value” for “pvalue”
as §2
The release of H2O2 was measured using the fluorescent method Amplex© Red hydrogen peroxide/peroxidase assay kit (Invitrogen, catalog number A22188) using a multiwell fluorescence reader (Varioskan, Thermo Scientific).
as §3

[3] = tested on: rat cortical primary neurons; assay: H2O2 formation in cortical primary neurons treated with L-BSO and rotenone (Amplex Red); settings: compound 1 μg/ml together with L-BSO and rotenone for 6 h, washed, recorded 2 h (FIG. 2)
Method: The data are presented as the mean values±[…] of the mean (SEM) from n=6 (i.e., 6 independent wells measured independently).
After this period, cells were again washed and determined the rate of H2O2 production during the next 2 h.

Structure (SMILES)	neuronal apoptosis (caspase-3 activity) after NMDA [1]	H2O2 production in neuron cells after NMDA [2]	rate of H2O2 formation [3]
C=CC1(C)C=C(C)C2C3C(Oc4ccc(cc4)CC45OC4(C(=O)NC5=O)C(=O)C31)C1C(C)CC(C)CC21C (stereo not drawn) [CL0661]	effective in protecting neuron cells against apoptosis	successful in preventing H2O2 from being produced	–
CC1=CC2(C)C(C)O/C3=C4\C(=O)NC(=O)C4Cc4ccc(cc4)OC4C(C32)C1C1(C)CC(C)CC(C)C41 (stereo not drawn) [CL0665]	effective in protecting neuron cells against apoptosis	–	–
C=CC1(C)C=C(C)C2C3C(Oc4ccc(cc4)CC4C(=O)N(CC#N)C(=O)C4C(=O)C31)C1C(C)CC(C)CC21C (stereo not drawn) [CL0667]	effective in protecting neuron cells against apoptosis	successful in preventing H2O2 from being produced	–
C=C[C@@]1(C)C=C(C)C2C3[C@H](Oc4ccc(cc4)CC4C(=O)NC(=O)[C@H]4C(=O)[C@H]31)C1[C@@H](C)C[C@@H](C)C[C@@]21C (stereo partly drawn) [GKK1032, reference compound]	effective in protecting neuron cells against apoptosis	successful in preventing H2O2 from being produced	significantly impaired
C=C[C@@H]1C=C(C)[C@H]2[C@@H]3[C@H](Oc4ccc(cc4)C[C@@]4(O)C=C(C(=O)N4)C(=O)[C@@H]13)[C@@H]1[C@@H](C)C[C@@H](C)C[C@]12C [Pyrrocidine A, reference compound]	–	successful in preventing H2O2 from being produced	significantly impaired
C=C[C@@H]1C=C(C)[C@H]2[C@@H]3[C@H](Oc4ccc(cc4)C[C@@]4(O)C[C@H](C(=O)N4)C(=O)[C@@H]13)[C@@H]1[C@@H](C)C[C@@H](C)C[C@]12C [Pyrrocidine B, reference compound]	effective in protecting neuron cells against apoptosis	successful in preventing H2O2 from being produced	–
